Results from article PMC9230136 (Pharmaceutics, 2022).
Where two headings read alike, the source gives them in different places.

Legend:
Jurkat = experiment: Antiproliferative assay (resazurin, 72 h); format: cell-based, human
Method in brief: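 Compounds dissolved in DMSO as 10 mM stocks were applied to seeded Jurkat cells using 5-fold serial dilutions from 10 μM, with each condition run in triplicate. Following 72 h incubation, 10 μL of 100 μg/mL resazurin was added for 3–4 h, and fluorescence was measured at 535 nm excitation and 600 nm emission.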

A549 = experiment: Antiproliferative assay (resazurin, 72 h); format: cell-based, human
Method in brief: (§1)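 The highest dose is 10 μM, diluted in five-fold steps, and each condition is run in triplicate. HT-29 uses RPMI-1640 medium; MDA-MB-231, A549 and HeLa use DMEM.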

MDA-MB-231 = experiment: Antiproliferative assay (resazurin, 72 h); format: cell-based, human; conditions: mean ± SE, 72 h
Method in brief: as §1

HeLa = experiment: Antiproliferative assay (resazurin, 72 h); format: cell-based, human
Method in brief: as §1

HT-29 = experiment: Antiproliferative assay (resazurin, 72 h); format: cell-based, human
Method in brief: as §1

HeLa cells [1] = experiment: EdU cell proliferation assay; format: cell-based, human; conditions: 25 or 50 nM; 24 h
Protocol: HeLa cells were seeded in a 6-well plate and, after a 24 h incubation, were treated with the desired compounds as indicated in the Biological Results and Discussion section. Cells were re-incubated for one day and then labeled with EdU (10 μM) for 3 h under cell culture conditions. Cells were harvested by centrifugation before proceeding with the fixation step using 3.7% formaldehyde. Next, permeabilization with 0.5% Triton X-100 was performed. The reaction cocktail was prepared and added to each well (100 μL/well) following the manufacturer’s instructions (EdU-Click 488, base click, Sigma-Aldrich. Milano Italy), and the plate was incubated at room temperature for 30 min in the dark. Cells were washed 2 times with phosphate-buffered saline (PBS) before reading samples with a Beckman Coulter Cytomics FC500 instrument (λex/λem = 496/516 nm).

HeLa cells [2] = experiment: Cell cycle analysis (PI, flow cytometry); format: cell-based, human; conditions: 24 h; for cells arrested in the G2/M phase: 100 nM
Protocol: HeLa cells were seeded at 100,000 cells per well on 6-well tissue culture plates. After 24 h, cells were treated with different test compound concentrations or DMSO for another 24 h. Cells were then fixed and stained with propidium iodide (PI). The fluorescence intensity of 10,000 single-cell events was measured with a Beckman Coulter Cytomics FC500 instrument (Beckman Coulter Italia, Milano, Italy) and the data were analyzed with MultiCycle for Windows software from Phoenix Flow Systems (San Diego, CA, USA).

HeLa cells [3] = experiment: Apoptosis by annexin-V-FITC/PI flow cytometry; format: cell-based, human
Protocol: Surface exposure of phosphatidylserine on apoptotic cells was measured by flow cytometry with a Beckman Coulter Cytomics FC500 (Beckman Coulter Italia, Milano, Italy) by adding annexin-V conjugated to fluorescein isothiocyanate (FITC) to cells according to the manufacturer’s instructions (Annexin-V Fluos, Roche Diagnostic, Monza, Italy). Simultaneously, the cells were stained with PI. Excitation was set at 488 nm, and the emission filters were at 525 and 585 nm, respectively, for FITC and PI.

Bovine brain tubulin [4] = experiment: Inhibition of tubulin polymerization; format: biochemical
Protocol: (§2) Bovine brain tubulin was purified as described previously. To evaluate the effects of the compounds on tubulin assembly in vitro [35], varying concentrations were preincubated with 10 μM tubulin in 0.8 M monosodium glutamate (pH 6.6) at 30 °C and the reaction mixtures then cooled to 0 °C. After addition of GTP, the mixtures were transferred to 0 °C cuvettes in Beckman Coulter (Brea, CA, USA) DU-7400/DU-7500 recording spectrophotometers equipped with electronic temperature controllers and warmed to 30 °C, and the assembly of tubulin was observed turbidimetrically. […] Inhibition of colchicine binding to tubulin was measured as described before, except that the reaction mixtures contained 0.5 μM tubulin and 5 μM each of [^3H]colchicine and test compound. Only one DEAE-cellulose filter was used per sample, and filtration was by gravity.

Bovine brain tubulin [5] = experiment: Inhibition of [3H]colchicine binding to tubulin; conditions: tubulin 0.5 µM, [3H]colchicine 5 µM, compound 5 µM
Protocol: as §2

quiescent PBLs = experiment: Cytotoxicity in human PBLs, resting; format: cell-based; conditions: PBL not stimulated with PHA, 72 h, read-out: IC50 PBLresting
Text: (§3) Human PBLs were obtained from healthy donors by separation on a Lymphoprep^TM (Serumwerk Bernburg AG) gradient and were used for the evaluation of the cytotoxic potential of compounds under study in normal human cells. Buffy coats were obtained from the Blood Transfusion Service, Azienda Ospedaliera of Padova and provided at this institution for research purposes without identifier. The samples were not obtained specifically for this study, and for this reason ethical approval was not required. Informed consent was obtained from blood donors according to Italian law no. 219 (21 October 2005). Data were treated by the Blood Transfusion Service according to Italian law on personal data management “Codice in materia di protezione dati personali” (Testo Unico D.L. Giugno 30, 2003 196).
(§4) After extensive washing with saline solution (BioConcept, Hank’s Buffered Saline Solution), quiescent PBLs were resuspended (1.0 × 10^6 cells/mL) in RPMI-1640 medium supplemented with 10% fetal bovine serum. Cytotoxicity evaluations were conducted also in cultures of proliferating PBLs, stimulated with […] PHA (Irvine Scientific). Both resting and proliferating lymphocytes were seeded in 96-well plates and maintained overnight at 37 °C in a humidified 5% CO2 incubator. Serial (5-fold) dilutions of the tested compounds were added, and viability was determined 72 h later by the resazurin viability assay as described above.

HeLa cells [6] = experiment: Mitochondrial membrane potential (JC-1); format: cell-based, human; conditions: Figure 8A representative plot; concentration not given
Protocol: (§5) The mitochondrial potential was evaluated in HeLa cells by flow cytometry using the cell membrane permeable cationic dye 5,5′,6,6′-tetrachloro-1,1′,3,3′-tetraethyl-imidacarbocyanine iodide (JC-1) (Molecular Probes) as described previously. The production of ROS was measured in HeLa cells by flow cytometry using 2′,7′-dichlorodihydrofluorescein diacetate (H2DCFDA) (Molecular Probes) as described previously.

[7] = system: A549, MDA-MB-231, HeLa, HT-29 and Jurkat cancer cell lines; experiment: Antiproliferative activity over the panel of cancer cell lines; format: cell-based, human
Protocol: Colon adenocarcinoma (HT-29) and T-cell leukemia (Jurkat) cells were grown in RPMI-1640 medium (Gibco, Milano, Italy). Promyelocytic leukemia cells (HL-60), non-small cell lung carcinoma (A549), cervix carcinoma (HeLa) and breast adenocarcinoma (MDA-MB-231) cells were grown in DMEM medium (Gibco, Milano, Italy). Both media were supplemented with 115 units/mL of penicillin G (Gibco, Milano, Italy), 115 μg/mL of streptomycin (Invitrogen, Milano, Italy) and 10% fetal bovine serum (Invitrogen, Milano, Italy). All the cell lines used were purchased from the American Type Culture Collection (ATCC, Manassas, VA, USA). Stock solutions (10 mM) of the compounds were obtained by dissolving them in DMSO.
The cells were seeded in 96-well plates at the appropriate density for each cell line. After 24 h, the cells were treated by performing serial 5-fold dilutions of the tested compounds starting from a concentration of 10 μM. All experimental conditions were tested in triplicate for statistical analysis. The plates were incubated for 72 h at 37 °C in a humidified 5% CO2 atmosphere. At the end of the incubation period, 10 μL of 100 μg/mL resazurin solution was added to each well; then, the plate was re-incubated for 3–4 h. The fluorescence of the wells in each plate was monitored using a Spark 10 M spectrophotometer (Tecan Group Ltd., Mannedorf, Switzerland) with a 535 nm excitation wavelength and a 600 nm emission wavelength.

HeLa cells [8] = experiment: ROS production (H2DCFDA); format: cell-based, human; conditions: 10, 50 or 100 nM; 24 h
Protocol: as §5

PBL stimulated with PHA = experiment: Cytotoxicity in human PBLs stimulated with PHA; format: cell-based; conditions: 72 h, read-out: IC50 PBLPHA
Text: as §3, §4

[9] = parameters: method as in PMID 31459105; conditions: cited from earlier work
Zebrafish embryos = experiment: Acute toxicity assessment in zebrafish embryos; format: in vivo, Danio rerio; conditions: 100 nM
Protocol: Zebrafish embryos at 72 h post fertilization (hpf) were selected for the acute toxicity assay since, at that time, morphogenesis and function of the primary organ systems are complete. Embryos at 72 hpf were assayed in a 12-well plate, 20 larvae/well for each experimental condition.
The zebrafish embryos were treated as described in the Biological Results and Discussion section using drug concentrations selected on the basis of in vitro experimental data. The drugs were added directly to the fish water from 10 mM stock solutions in DMSO of tested compounds. […] CA-4P was employed as the reference compound.
The experiment was carried out at a constant temperature (28.5 °C) in the dark, and at 24 and 48 h time points, zebrafish were subjected to visual observation and image acquisition under a stereomicroscope (Nikon SMZ745T; Nikon, Japan). The number of dead zebrafish embryos for each condition was recorded, and morphological defects were evaluated. The survival rate (%) after treatment was calculated.

[10] = parameters: method as in PMID 31459105; conditions: cited from earlier work; remark: listed apart in the source
[11] = tubulin at 10 μM, read-out: Tubulin Assembly IC50 ± SD

Cc1cc(Nc2ccc(F)c(Cl)c2)n2nc(NCCCc3ccccc3)nc2n1 [Compound 8r, N^7-(3-Chloro-4-fluorophenyl)-5-methyl-N^2-(3-phenylpropyl)-[1,2,4]triazolo [1,5-a]pyrimidine-2,7-diamine]
IC50 (Jurkat; Homo sapiens, Jurkat, Table 2, mean ± SE, 72 h): 230 ± 20 nM | IC50 (A549; Homo sapiens, A549, Table 2, mean ± SE): 81 ± 2 nM | IC50 (MDA-MB-231; Homo sapiens, MDA-MB-231, Table 2): 98 ± 20 nM | IC50 (HeLa; Homo sapiens, HeLa, Table 2, mean ± SE): 35 nM | IC50 (HT-29; Homo sapiens, HT-29, Table 2, mean ± SE, 72 h): 58 ± 10 nM | EdU incorporation / cell proliferation (HeLa cells [1]): effective in reducing HeLa cell proliferation | cells arrested in the G2/M phase (HeLa cells [2]): more than 70% | concentration at which G2/M arrest began (HeLa cells [2]): 25 nM | concentration from which apoptosis was induced (HeLa cells [3]): 50 nM | fold more potent than CA-4, tubulin polymerization (Bovine brain tubulin [4]): about 2 fold | IC50 (Bovine brain tubulin [4]; read-out: IC50 tubulin polymerization): 390 nM | IC50 (Bovine brain tubulin [4]; [11]): 520 ± 60 nM | Colchicine Binding % Inhibition ± SD (Bovine brain tubulin [5]): 87 ± 0.8% | melting point: 168 to 170 °C | IC50 (quiescent PBLs; Homo sapiens): > 10000 nM | Monomers (%) (monomeric JC-1) (HeLa cells [6]): 16.6% | IC50 ([7]; Homo sapiens, mean over the five cancer cell lines, read-out: mean IC50 (antiproliferative activity)): 101 nM | ROS production (HeLa cells [8]): significantly increased ROS production in a dose-dependent manner | IC50 (PBL stimulated with PHA; Homo sapiens): > 10000 nM

COc1cc(Nc2cc(C)nc3nc(NCCCc4ccccc4)nn23)cc(OC)c1OC [Compound 7ad]
IC50 (Jurkat): > 2000 nM | IC50 (Jurkat; Table 1, mean ± SE, 72 h): 2720 ± 130 nM | IC50 (A549; Table 1, mean ± SE): 190 ± 20 nM | IC50 (MDA-MB-231; Table 1): 91 ± 8 nM | IC50 (HeLa; Table 1, mean ± SE): 67 ± 7 nM | IC50 (HT-29): 142 nM | IC50 (HT-29; Table 1, mean ± SE, 72 h): 140 ± 11 nM | EdU incorporation / cell proliferation (HeLa cells [1]): effective in reducing HeLa cell proliferation | cells arrested in the G2/M phase (HeLa cells [2]): more than 70% | concentration at which G2/M arrest began (HeLa cells [2]): 25 nM | concentration from which apoptosis was induced (HeLa cells [3]): 50 nM | IC50 (Bovine brain tubulin [4]; [11]): 380 ± 60 nM | Colchicine Binding % Inhibition ± SD (Bovine brain tubulin [5]): 55 ± 3% | IC50 (quiescent PBLs): > 10000 nM | Monomers (%) (monomeric JC-1) (HeLa cells [6]): 33.4% | IC50 ([7]; four of the five cell lines, read-out: IC50 values against four of the five cell lines): < 1000 nM | ROS production (HeLa cells [8]): significantly increased ROS production in a dose-dependent manner | IC50 (PBL stimulated with PHA): > 10000 nM

COc1ccc(/C=C\c2cc(OC)c(OC)c(OC)c2)cc1O [CA-4, combretastatin A-4, reference compound]
IC50 (Jurkat; Homo sapiens, Jurkat, Table 1, mean ± SE, 72 h): 1 ± 0.2 nM | IC50 (MDA-MB-231; Homo sapiens, MDA-MB-231, Table 1): 5 ± 2 nM | IC50 (HeLa; Homo sapiens, HeLa, Table 1, mean ± SE): 4 ± 1 nM | IC50 (Bovine brain tubulin [4]; [11]): […] | Colchicine Binding % Inhibition ± SD (Bovine brain tubulin [5]): 97 ± 0.1% | biological half-life [9]: short biological half-life | lethality (Zebrafish embryos): 100% | Results (toxicity evaluation) (Zebrafish embryos; 72 hpf embryos): Toxic | IC50 (quiescent PBLs; Homo sapiens): > 10000 nM | IC50 ([7]; Homo sapiens, against three of the five lines (not A549, HT-29), read-out: IC50's, range): 1 to 5 nM | IC50 (PBL stimulated with PHA; Homo sapiens): 18.6 ± 3.8 nM | aqueous solubility [10]: very poor aqueous solubility
